Results published in patent US20100233231A1, “USE OF CRYOGENIC PROCESSING TO OBTAIN A SUBSTANTIALLY-THICKENED FORMULATION” (priority 2009, published 2010).

Experiment: Consistency and homogeneity of the formulation after cryo-processing (observation)
Type: physicochemical
Details: 8 cycles
Protocol: Fish oil was cured to a film with the use of heat.
It was processed in a Spex Certiprep cryogrinder for 8 cycles, each cycle lasting 2.0 minutes and with a 2.0 minute between-cycle cool down to maintain the system at cryogenic temperatures.

In the case of CCCCCCCCCCCCCCCCO [Cetyl Alcohol], the “consistency of resulting formulation” value (Example 7: 30% in 70% fish oil 30% Vitamin E, 30 impacts per second) is reported as “highly viscous and smooth”.
In the case of O=C(CO)[C@@H](O)[C@H](O)[C@H](O)CO [Fructose], the “consistency of resulting formulation” value (Example 5: 40% in 100% fish oil, 20 impacts per second) is reported as “highly viscous upon standing and was extremely shear thinning”.
In the case of CO[C@H]1C[C@@H]2CC[C@@H](C)[C@@](O)(O2)C(=O)C(=O)N2CCCC[C@H]2C(=O)O[C@H]([C@H](C)C[C@@H]2CC[C@@H](O)[C@H](OC)C2)CC[C@H](C)/C=C(\C)[C@@H](O)[C@@H](OC)C(=O)[C@H](C)C[C@H](C)/C=C/C=C/C=C/1C [Rapamycin derivative], the “consistency of resulting formulation” value (Example 2: 31% in 70% fish oil 30% vitamin E, 20 impacts per second) is reported as “highly viscous and shear thinning with small crystals evident throughout the sample”.
